Measured values as given in article PMC8042727, “Apoptosis-like cell death upon kinetoplastid induction by compounds isolated from the brown algae Dictyota spiralis” (Parasites & Vectors, 2021).

Key:
[1] = system: Leishmania amazonensis promastigotes; experiment: DNA condensation assay (Hoechst 33342 / PI); type: cell-based; conditions: L. amazonensis promastigotes, IC90, 24 h
Method: Hoechst dye is a blue-fluorescent dye that stains condensed chromatin of apoptotic cells. To detect DNA condensation, the chromatin condensation/dead cell apoptosis kit was used (Invitrogen, Thermo Fisher Scientific, Waltham, MA, USA). Cells were incubated in the presence of the compounds to be tested at IC90. The IC90 values were determined using nonlinear regression of the AlamarBlue® curve. After 24 h of incubation, cells were harvested and resuspended in medium, following which 1 μl of Hoechst 33342 stock solution was added to parasites and incubated for 20 min. Results were analyzed by cell imaging using the Evos FL cell imaging system (Thermo Fisher Scientific). The experiments were repeated using a double-stain apoptosis detection kit (Hoechst 33342/PI; Thermo Fisher Scientific). […] A positive control was also tested: miltefosine (L. amazonensis) and benznidazole (T. cruzi).
DNA condensation is an important cellular event, providing evidence of apoptotic cell death. Hoechst dye is a blue-fluorescent dye that stains condensed chromatin. […] Also, using propidium iodine (PI), it is possible to distinguish dead cells, which stain red when PI penetrates the nucleus. The results of staining were evaluated using cell imaging. Different microscopy images are regrouped in Fig. 2 (for L. amazonensis) and Fig. 3 (for T. cruzi). […] A clear reduction in cell number is also evident.

[2] = system: Leishmania amazonensis; experiment: ATP level (CellTiter-Glo); type: cell-based; conditions: L. amazonensis, IC90, 24 h, relative to negative control
Method: The CellTiter-Glo® luminescent cell viability assay (Promega, WI, USA) was used to quantify the adenosine triphosphate (ATP) concentration. Cells of the kinetoplastid strains (for both L. amazonensis [2 × 10^6 cells/ml] and T. cruzi [5 × 10^5cells/ml]) were incubated for 24 h with the compounds to be tested, at IC90 and 26 °C. After incubation, the cells were centrifuged and resuspended in 100 μl. To this volume, we added 100 μl of the reactive in white 96-well plates. After incubation, the luminescence signal was measured using the Enspire multimode plate reader. The decrease in ATP level was expressed as a percentage relative to the negative control. Miltefosine and benznidazole were tested as the positive control for L. amazonensis and T. cruzi, respectively.

Row | SMILES | chromatin condensation / cell death stage (Hoechst/PI staining) [1] | loss of ATP concentration [2]
1 | C=C(C)[C@H]1CC[C@]2(C)C[C@@H]3O[C@@]3(C)CC/C=C(\C)CC[C@@H]12 [Compound 3, 3,4-epoxy-7,18-dolabelladiene] | late apoptotic stage | 
2 | C=C1CC[C@@H]([C@@](C)(O)CCC=C(C)C)[C@@H](O)[C@@H]2C(C)=CC[C@@H]12 [Compound 2, dictyol E] | late apoptotic stage | 26.6%
